For one compound, IC50 and Imax results are on record in ChEMBL document CHEMBL4011581, “Interference with bile salt export pump function is a susceptibility factor for human liver injury in drug development” (Toxicol Sci, 2010).

Data set [1] concerns the target T1, Bile salt export pump (Homo sapiens, UniProt O95342). Nature of the data set: Inhibition of human BSEP expressed in fall armyworm sf9 cell plasma membrane vesicles assessed as reduction in vesicle-associated [3H]-taurocholate transport preincubated for 10 mins prior to ATP addition measured after 15 mins in presence of [3H]-taurocholate by topcount based membrane vesicle transport assay. The data set is classed as ADME.

Data set [2] concerns the target T1, Bile salt export pump. Nature of the data set: Inhibition of human BSEP expressed in fall armyworm sf9 cell membrane vesicles assessed as reduction in ATP-dependent [3H]-taurocholic acid uptake preincubated for 30 mins prior to [3H]-taurocholic acid addition by liquid scintillation counting. The data set is classed as ADME.
In data set [3] the target is T1, Bile salt export pump. Nature of the data set: Inhibition of human BSEP expressed in fall armyworm sf9 cell membrane vesicles assessed as reduction in ATP-dependent [3H]-taurocholic acid uptake at 100 uM preincubated for 30 mins prior to [3H]-taurocholic acid addition by liquid scintillation counting relative to control. The format is ADME.
Data set [4] deals with T1, Bile salt export pump. Nature of the data set: Inhibition of human BSEP expressed in fall armyworm sf9 cell membrane vesicles assessed as reduction in vesicle-associated [3H]-taurocholate at 133 uM preincubated for 10 mins prior to ATP addition measured after 15 mins in presence of [3H]-taurocholate by topcount based membrane vesicle transport assay relative to control. The data set is classed as ADME.

For data set [5], the target named is T1, Bile salt export pump. Nature of the data set: Inhibition of BSEP in human hepatocytes assessed as reduction in biliary excretion of [3H]-taurocholate in cell lysates after 15 mins by liquid scintillation counting. The data set is classed as ADME, cell-based, Lysate.
Data set [6] has as its target T1, Bile salt export pump. Nature of the data set: Inhibition of BSEP in human hepatocytes assessed as reduction in biliary excretion of [3H]-taurocholate in cell lysates at 10 to 100 uM after 15 mins by liquid scintillation counting relative to control. The format is ADME, cell-based, Lysate.

For the compound `CC(C)C(=O)Nc1ccc([N+](=O)[O-])c(C(F)(F)F)c1` [FLUTAMIDE], the IC50 at Bile salt export pump [1] was more than 135 µM; on Bile salt export pump [2] it was 50 µM; at Bile salt export pump [5], 75 µM. Besides, the Imax was 40 to 50% at Bile salt export pump [3], 50% at Bile salt export pump [4] and 20% at Bile salt export pump [6].

Usually IC50 stands for the point on the concentration scale where inhibition reaches its midpoint.
